Data reported in US11753407B2, “Compounds for treating spinal muscular atrophy” (PTC Therapeutics, Inc., priority 2012, dated 2023).

How the values were obtained:
[1] = tested on: Smn protein in SMA patient fibroblast cells (GM03813); assay: Smn protein assay in cultured cells (SMN HTRF); format: cell-based, human; settings: SMA patient fibroblast cells, 48 hours; for EC1.5x for Smn protein expression: 7-point concentration curve, SMN HTRF, concentration producing 1.5 times Smn protein vs DMSO vehicle control; for maximum fold (Fold) increase of Smn protein: 7-point concentration data, fold relative to vehicle control
Outline: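 Smn protein abundance in treated SMA fibroblasts was measured by HTRF after 48 h compound exposure. The reported EC1.5× is the concentration producing 1.5 times vehicle Smn levels.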

[2] = tested on: SMN2 minigene mRNA (SMN2-A minigene) in HEK293H cells; assay: SMN2 minigene mRNA splicing RT-qPCR assay in cultured cells; format: cell-based, human; settings: Homo sapiens, HEK293-H; concentration increasing full length SMN2 mRNA 1.5-fold relative to vehicle-treated cells; HEK293H cells with SMN2-A minigene, 24 hours, 7-point concentration data; read-out: EC1.5x for production of full length SMN2 mRNA
Outline: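 Potency reflects the concentration that lifts full-length SMN2 minigene mRNA 1.5-fold above vehicle in stably transfected HEK293H cells after 24 h of treatment. Transcript abundance came from RT-qPCR as (1+E)^−Ct, normalized to GAPDH; endogenous SMN1/SMN2 are not detected.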

| Structure (SMILES) | melting point [°C] | EC1.5x for Smn protein expression [1] | maximum fold (Fold) increase of Smn protein [1] | EC (1.5-fold increase) [2] [µM] |
| --- | --- | --- | --- | --- |
| Cc1cn2cc(-c3cc(=O)n4cc(C5CCN(C6CCC6)CC5)ncc4n3)ccc2n1 [Compound 628, 7-(1-cyclobutylpiperidin-4-yl)-2-(2-methylimidazo[1,2-a]pyridin-6-yl)-4H-pyrazino[1,2-a]pyrimidin-4-one] | 249 to 251 | * (An EC1.5× for Smn protein expression between >3 μM and ≤10 μM is indicated by one star (*)) | **** (a fold increase between >1.5 and ≤1.65 is indicated by four stars (****)) | 0.3 to 1 |
| CCc1nc(C)cn2nc(-c3cc(=O)n4cc(N5CCN(CCO)[C@H](C)C5)ccc4n3)cc12 [Compound 632, 2-(4-ethyl-6-methylpyrazolo[1,5-a]pyrazin-2-yl)-7-[(3R)-4-(2-hydroxyethyl)-3-methylpiperazin-1-yl]-4H-pyrido[1,2-a]pyrimidin-4-one] | 238 to 241 | **** (an EC1.5x≤0.3 μM is indicated by four stars (****)) | ***** (a fold increase >1.65 is indicated by five stars (*****)) | < 0.1 |
| CCc1nc(C)cn2nc(-c3cc(=O)n4cc(N5C[C@@H](C)N[C@@H](C)C5)ccc4n3)cc12 [Compound 633, 7-[(3R,5S)-3,5-dimethylpiperazin-1-yl]-2-(4-ethyl-6-methylpyrazolo[1,5-a]pyrazin-2-yl)-4H-pyrido[1,2-a]pyrimidin-4-one] | 258 to 260 | **** (an EC1.5x≤0.3 μM is indicated by four stars (****)) | ***** (a fold increase >1.65 is indicated by five stars (*****)) | < 0.1 |
| CCc1nc(C)cn2nc(-c3cc(=O)n4cc(N5CCC(N6CCCC6)CC5)ccc4n3)cc12 [Compound 634, 2-(4-ethyl-6-methylpyrazolo[1,5-a]pyrazin-2-yl)-7-[4-(pyrrolidin-1-yl)piperidin-1-yl]-4H-pyrido[1,2-a]pyrimidin-4-one] | 229 to 232 | **** (an EC1.5x≤0.3 μM is indicated by four stars (****)) | ***** (a fold increase >1.65 is indicated by five stars (*****)) | < 0.1 |
| CCc1nc(C)cn2nc(-c3cc(=O)n4cc(N5CCCN(C)CC5)ccc4n3)cc12 [Compound 636, 2-(4-ethyl-6-methylpyrazolo[1,5-a]pyrazin-2-yl)-7-(4-methyl-1,4-diazepan-1-yl)-4H-pyrido[1,2-a]pyrimidin-4-one] | 175 to 180 | **** (an EC1.5x≤0.3 μM is indicated by four stars (****)) | ***** (a fold increase >1.65 is indicated by five stars (*****)) | < 0.1 |
| CCc1cc(-c2cc(=O)n3cc(N4CCNCC4)ccc3n2)cn2cc(C)nc12 [Compound 637, 2-(8-ethyl-2-methylimidazo[1,2-a]pyridin-6-yl)-7-(piperazin-1-yl)-4H-pyrido[1,2-a]pyrimidin-4-one] | 264 to 271 | **** (an EC1.5x≤0.3 μM is indicated by four stars (****)) | ***** (a fold increase >1.65 is indicated by five stars (*****)) | < 0.1 |
| CCc1cc(-c2cc(=O)n3cc(N4CCN[C@H](C)C4)ccc3n2)cn2cc(C)nc12 [Compound 638, 2-(8-ethyl-2-methylimidazo[1,2-a]pyridin-6-yl)-7-[(3R)-3-methylpiperazin-1-yl]-4H-pyrido[1,2-a]pyrimidin-4-one] | 230 to 234 | **** (an EC1.5x≤0.3 μM is indicated by four stars (****)) | ***** (a fold increase >1.65 is indicated by five stars (*****)) | < 0.1 |
| CCc1cc(-c2cc(=O)n3cc(N4CCN[C@@H](C)C4)ccc3n2)cn2cc(C)nc12 [Compound 639, 2-(8-ethyl-2-methylimidazo[1,2-a]pyridin-6-yl)-7-[(3S)-3-methylpiperazin-1-yl]-4H-pyrido[1,2-a]pyrimidin-4-one] | 232 to 236 | **** (an EC1.5x≤0.3 μM is indicated by four stars (****)) | ***** (a fold increase >1.65 is indicated by five stars (*****)) | < 0.1 |

More lines, main results first:

| melting point [°C] | Structure (SMILES) | EC1.5x for Smn protein expression [1] | maximum fold (Fold) increase of Smn protein [1] | EC (1.5-fold increase) [2] [µM] |
| --- | --- | --- | --- | --- |
| 256 to 258 | CCc1nc(C)cn2nc(-c3cc(=O)n4cc(N5CCN(CC)[C@H](C)C5)ccc4n3)cc12 [Compound 630, 7-[(3R)-4-ethyl-3-methylpiperazin-1-yl]-2-(4-ethyl-6-methylpyrazolo[1,5-a]pyrazin-2-yl)-4H-pyrido[1,2-a]pyrimidin-4-one] | **** (an EC1.5x≤0.3 μM is indicated by four stars (****)) | ***** (a fold increase >1.65 is indicated by five stars (*****)) | < 0.1 |
| 243 to 245 | CCCN1CCN(c2ccc3nc(-c4cc5c(CC)nc(C)cn5n4)cc(=O)n3c2)C[C@H]1C [Compound 631, 2-(4-ethyl-6-methylpyrazolo[1,5-a]pyrazin-2-yl)-7-[(3R)-3-methyl-4-propylpiperazin-1-yl]-4H-pyrido[1,2-a]pyrimidin-4-one] | *** (an EC1.5× between >0.3 μM and ≤1 μM is indicated by three stars (***)) | ***** (a fold increase >1.65 is indicated by five stars (*****)) | 0.1 to 0.3 |
| 202 to 204 | CCc1nc(C)cn2nc(-c3cc(=O)n4cc(N5CCN[C@@H](C)C5)ccc4n3)cc12 [Compound 635, 2-(4-ethyl-6-methylpyrazolo[1,5-a]pyrazin-2-yl)-7-[(3S)-3-methylpiperazin-1-yl]-4H-pyrido[1,2-a]pyrimidin-4-one] | **** (an EC1.5x≤0.3 μM is indicated by four stars (****)) | ***** (a fold increase >1.65 is indicated by five stars (*****)) | < 0.1 |
| 196 to 198 | Cc1cn2nc(-c3cc(=O)n4cc(C5CCN(C(C)C)CC5)ccc4n3)cc2c(C)n1 [Compound 640, 2-(4,6-dimethylpyrazolo[1,5-a]pyrazin-2-yl)-7-[1-(propan-2-yl)piperidin-4-yl]-4H-pyrido[1,2-a]pyrimidin-4-one] | **** (an EC1.5x≤0.3 μM is indicated by four stars (****)) | **** (a fold increase between >1.5 and ≤1.65 is indicated by four stars (****)) | < 0.1 |
| 180 to 183 | Cc1cn2nc(-c3cc(=O)n4cc(C5CCN(C6CC6)CC5)ccc4n3)cc2c(C)n1 [Compound 641, 7-(1-cyclopropylpiperidin-4-yl)-2-(4,6-dimethylpyrazolo[1,5-a]pyrazin-2-yl)-4H-pyrido[1,2-a]pyrimidin-4-one] | **** (an EC1.5x≤0.3 μM is indicated by four stars (****)) | ***** (a fold increase >1.65 is indicated by five stars (*****)) | < 0.1 |
